According to article PMC10302753, “Natural-Product-Inspired Microwave-Assisted Synthesis of Novel Spirooxindoles as Antileishmanial Agents: Synthesis, Stereochemical Assignment, Bioevaluation, SAR, and Molecular Docking Studies” (Molecules, 2023):
Values after ≈ are worked out from the molar mass of the structure shown. “Also recorded” adds a separate entry of the source. Read-outs that look alike come from different tables or passages of the source.

How the values were obtained:
[1] = biological target: Leishmania DNA topoisomerase type IB (purified recombinant LTopIB) (Leishmania donovani, UniProt A0A3Q8IHS4+Q8WQM6); assay: Plasmid relaxation assay (relaxation of supercoiled plasmid DNA); format: biochemical; conditions: for IC50: LTopIB inhibition, 50% reduction of supercoiled DNA, read-out: IC50 Using Plasmid Relaxation Assay; for LTopIB inhibition, result in words: recombinant enzyme in vitro, initial test at 100 µM, then dose/response
Description: The relaxation of supercoiled plasmid DNA is the method used for the determination of LTopIB activity. Various doses of each compound were treated with one unit of pure LTopIB (the enzyme to relax 0.5 µg of supercoiled DNA for 30 min at 37 °C) for 20 min at 4 °C. The reaction mixture, including 0.5 μg of supercoiled pBluescript SK(−) plasmid, 10 mM Tris-HCl buffer pH 7.5, 5 mM MgCl2, 0.1 mM EDTA, 15 µg/mL of bovine serum albumin, and 150 mM KCl, was then added in a final volume of 20 μL. After 30 min at 37 °C, the reaction mixtures were stopped by adding 4 μL of loading buffer, which included 5% sarkosyl, 0.12% bromophenol blue, and 25% glycerol. By electrophoresis, the topoisomers were separated on 1% agarose gels and electrophoresed at 2 V/cm for 16 h in a 0.1 M Tris-borate-EDTA buffer (pH 8.0) after being stained with ethidium bromide (0.5 µg/mL). Plotting the percentage of supercoiled DNA versus drug concentrations allowed researchers to determine the 50% inhibition concentration (IC50) values of LTopIB inhibition as the 50% reduction of supercoiled DNA [72].
Because of the presence of spirooxindole systems in the structure of these compounds, we aimed to assess their inhibitory potential on purified recombinant LTopIB measuring the relaxation of supercoiled plasmid DNA. In this regard, all spirooxindole derivatives were assessed for LTopIB inhibition through the prevention of DNA relaxation in a circular DNA plasmid. […] After this initial test, potential inhibitor dose/response curves were performed to obtain their IC50 values. […]
The relaxation of supercoiled plasmid DNA is the method used for the determination of LTopIB activity.
Various doses of each compound were treated with one unit of pure LTopIB (the enzyme to relax 0.5 µg of supercoiled DNA for 30 min at 37 °C) for 20 min at 4 °C. The reaction mixture including 0.5 μg of supercoiled pBluescript SK(−) plasmid, 10 mM Tris-HCl buffer pH 7.5, 5 mM MgCl2, 0.1 mM EDTA, 15 µg/mL bovine serum albumin, and 150 mM KCl was then added in a final volume of 20 μL. After 30 minutes at 37 °C, the reaction mixtures were stopped by adding 4 μL of loading buffer, which included 5% sarkosyl, 0.12% bromophenol blue, and 25% glycerol. By electrophoresis, the topoisomers were separated in 1% agarose gels were electrophoresed at 2 V/cm for 16 hours in a 0.1 M Tris-borate-EDTA buffer (pH 8.0) after being stained with ethidium bromide (0.5 µg/mL). Plotting the percentage of supercoiled DNA versus drug concentrations allowed researchers to determine the 50% inhibition concentration (IC50) values of LTopIB inhibition as the 50% reduction of supercoiled DNA. […]

[2] = test system: promastigotes of Leishmania donovani (MHOM/IN/1983/AG83); assay: In vitro antileishmanial activity, Trypan blue dye exclusion method; format: cell-based; conditions: 72 h, L. donovani promastigotes, 22 ± 1 °C, 50% growth inhibition, read-out: IC50 Using Trypan Blue Dye Exclusion Method
Description: The compounds (23a–f, 24a–f, and 25a–g) were initially screened for their in vitro antileishmanial activity against promastigotes of Leishmania donovani (MHOM/IN/1983/AG83) utilizing the Trypan blue dye exclusion method and the plasmid relaxation assay using amphotericin B and camphothesin as standard reference drugs, respectively.
The promastigotes were harvested from the culture vials, counted, and 2 × 10^6 cells/well were seeded in a 48-well culture plate. The antileishmanial screening of all the derivatives, 23a–f, 24a–f, and 25a–g, as well as the positive control, was performed at various concentrations (2 μg/mL, 4 μg/mL, 8 μg/mL, and 16 μg/mL) added in triplicate. The plate was incubated at 22 ± 1 °C in the BOD incubator for 72 h. After 72 h, each well was counted for the number of viable parasites using the Trypan blue dye exclusion method, and the percentage growth inhibition was calculated by using the formula: Percentage viability=No. of viable cells in treated well/No. of viable cells in blank well×100 Percentage growth inhibition = 100 − percentage viability […]
The IC50 (inhibitory concentration at which 50% of the parasites were dead) value was obtained by plotting a linear dose–response curve in SPSS software (Version 23). […]
Parasite strain and culture conditions:
The SSG-sensitive Indian strain of Leishmania donovani (MHOM/IN/1983/AG83) obtained from CSIR-IICB, Kolkata, was used for the study. The promastigotes of these strains were maintained in Medium 199+10% FCS (Foetal Calf Serum) by serial sub-culturing at an ambient temperature of 22±1°C every 72 […]
In vitro antileishmanial activity
Trypan blue dye exclusion method
For carrying out the antileishmanial activity in vitro, promastigotes of Leishmania donovani were used.
The promastigotes were harvested from the culture vials, counted, and 2 × 10^6 cells/well were seeded in a 48-well culture plate. Further, compounds at various concentrations (2 μg/mL, 4 μg/mL, 8 μg/mL and 16 μg/mL) were added in triplets. No drug was added to the well serving as a blank, and amphotericin B was added to the well serving as the positive control. The plate was incubated at 22 ± 1°C in the BOD incubator for 72 hours. After 72 hours, each well was counted for the number of viable parasites using the trypan blue dye exclusion method, and the percentage growth inhibition was calculated by using the formula:
Percentage growth inhibition = 100 – percentage viability
IC50 (inhibitory concentration at which 50% of the parasites were dead) was obtained by plotting a linear dose-response curve in SPSS software (Version 23). […]
8.0) after being stained with ethidium bromide (0.5 µg/mL). Plotting the percentage of supercoiled DNA versus drug concentrations allowed researchers to determine the 50% inhibition concentration (IC50) values of LTopIB inhibition as the 50% reduction of supercoiled DNA.
Characterization data of spirooxindole derivatives (23a-f, 24a-f, 25a-g).
(1'S,2'R,3S,7a'S)-1'-(4-chlorophenyl)-2'-(4-fluorobenzoyl)-5-methyl-1',2',5',6',7',7a'-hexahydrospiro [indoline-3,3'-pyrrolizin]-2-one (23a): The product was synthesized utilizing the microwave-irradiated approach, and purified by column chromatography over silica gel using hexane/EtOAc (8:2) as an eluent; Physical Appearance: light yellow solid; Yield: 98%; Rf (EtOAc/hexane: 1:1) = 0.48; m.p. 182-184 °C; […]
(1'S,2'R,3S,7a'S)-5-fluoro-2'-(4-fluorobenzoyl)-1'-(4-methoxyphenyl)-1',2',5',6',7',7a'-hexahydro spiro[indoline-3,3'-pyrrolizin]-2-one (23b): The product was synthesized utilizing the microwave-irradiated approach, and purified by column chromatography over silica gel using hexane/EtOAc (7:3) as an eluent; Physical Appearance: light yellow solid; Yield: 66%; Rf (EtOAc/hexane: 1:1) = 0.45; m.p. 161-

[3] = test system: LdTopIB; parameters: method as in PMID 24433962, doi:10.1016/j.molstruc.2019.03.032, PMID 34311084, PMID 36444862; conditions: Figure 2; cited from earlier work
[4] = test system: promastigotes and the amastigotes forms of Leishmania (L.) species; parameters: method as in PMID 24433962, doi:10.1016/j.molstruc.2019.03.032, PMID 34311084, PMID 36444862; conditions: Figure 2; cited from earlier work

Leishmania DNA topoisomerase type IB (purified recombinant LTopIB), sequence (Q8WQM6 entry or part of it): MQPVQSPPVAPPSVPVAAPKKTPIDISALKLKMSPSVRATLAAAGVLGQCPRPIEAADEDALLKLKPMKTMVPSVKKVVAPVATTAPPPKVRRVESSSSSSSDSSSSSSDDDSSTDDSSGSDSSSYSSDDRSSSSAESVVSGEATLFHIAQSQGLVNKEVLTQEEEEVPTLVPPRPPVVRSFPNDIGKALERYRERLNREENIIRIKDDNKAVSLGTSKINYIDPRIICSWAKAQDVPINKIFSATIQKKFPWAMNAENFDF
Leishmania DNA topoisomerase type IB (purified recombinant LTopIB), sequence (A0A3Q8IHS4 entry or part of it): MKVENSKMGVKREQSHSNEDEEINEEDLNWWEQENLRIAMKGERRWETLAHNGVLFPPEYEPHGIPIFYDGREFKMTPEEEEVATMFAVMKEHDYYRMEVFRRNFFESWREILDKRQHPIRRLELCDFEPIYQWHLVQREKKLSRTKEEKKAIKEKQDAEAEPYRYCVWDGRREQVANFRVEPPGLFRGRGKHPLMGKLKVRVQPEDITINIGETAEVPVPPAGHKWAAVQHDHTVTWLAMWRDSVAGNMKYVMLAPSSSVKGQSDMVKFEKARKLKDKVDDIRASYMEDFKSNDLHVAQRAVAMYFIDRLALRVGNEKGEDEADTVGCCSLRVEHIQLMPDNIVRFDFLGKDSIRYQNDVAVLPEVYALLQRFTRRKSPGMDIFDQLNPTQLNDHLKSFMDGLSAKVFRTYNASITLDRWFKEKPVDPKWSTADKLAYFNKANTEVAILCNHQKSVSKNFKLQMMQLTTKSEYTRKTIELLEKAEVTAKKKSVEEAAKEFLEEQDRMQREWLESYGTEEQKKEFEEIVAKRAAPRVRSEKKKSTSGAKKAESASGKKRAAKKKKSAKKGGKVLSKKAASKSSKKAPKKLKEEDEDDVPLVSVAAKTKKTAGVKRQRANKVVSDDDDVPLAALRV

Row | Structure (SMILES) | IC50 [1] | IC50 ([2]; Leishmania donovani) | melting point | also measured
1 | COc1ccc([C@@H]2[C@@H](C(=O)c3ccc(F)cc3)[C@]3(C(=O)Nc4ccc(F)cc43)N3CCC[C@@H]23)cc1 [23b, (1'S,2'R,3S,7a'S)-5-fluoro-2'-(4-fluorobenzoyl)-1'-(4-methoxyphenyl)-1',2',5',6',7',7a'-hexahydrospiro[indoline-3,3'-pyrrolizin]-2-one] | > 100 µM | > 20 µM | 161 to 163 °C | –
2 | COc1ccc(C2C3CCCN3C3(C(=O)Nc4ccc(F)cc43)C2C(=O)c2ccc(Br)cc2)cc1 (centres unmarked) [23c] | > 100 µM | > 20 µM | 126 to 128 °C | –
3 | COc1ccc(C2C3CCCN3C3(C(=O)Nc4ccc(OC)cc43)C2C(=O)c2ccc(Br)cc2)cc1 (centres unmarked) [23d] | 53.6 µM | ≤ 10 µM | 107 to 109 °C | IC50 [2]: 7.78 µM
4 | COc1ccc(C2C3CCCN3C3(C(=O)Nc4ccc([N+](=O)[O-])cc43)C2C(=O)c2ccc(Br)cc2)cc1 (centres unmarked) [23e] | > 100 µM | > 20 µM | 111 to 113 °C | –
5 | O=C(c1ccccc1)[C@@H]1[C@@H](c2ccccc2)[C@@H]2CCCN2[C@@]12C(=O)Nc1ccc(Br)cc12 [23f, (1′S,2′R,3S,7a’S)-2′-benzoyl-5-bromo-1′-phenyl-1′,2′,5′,6′,7′,7a’-hexahydrospiro[indolin-3,3′-pyrrolizin]-2-one] | > 100 µM | > 20 µM | 175 to 177 °C | –
6 | COc1ccc2c(c1)[C@]1(N[C@@H](Cc3ccccc3)[C@H](c3ccc(Cl)cc3)[C@H]1C(=O)c1ccc([N+](=O)[O-])cc1)C(=O)N2 [24a] | 17.3 µM | 2.43 µM | – | LTopIB inhibition, result in words [1]: showed potential results; also recorded: potent LTopIB inhibitors; also recorded: able to inhibit the recombinant enzyme in vitro
7 | Cc1ccc(C(=O)[C@@H]2[C@@H](c3ccc(Br)cc3)[C@H](Cc3ccccc3)N[C@@]23C(=O)Nc2ccc([N+](=O)[O-])cc23)cc1 [24b] | 37.6 µM | ≤ 10 µM | 121 to 122 °C | IC50 [2]: 5.36 µM
8 | Cc1ccc2c(c1)[C@]1(N[C@@H](Cc3ccccc3)[C@H](c3ccc(Cl)cc3)[C@H]1C(=O)c1ccc([N+](=O)[O-])cc1)C(=O)N2 [24c] | > 100 µM | > 20 µM | 135 to 137 °C | –
9 | O=C(c1ccc(F)cc1)[C@@H]1[C@@H](c2ccc(Cl)cc2)[C@H](Cc2ccccc2)N[C@@]12C(=O)Nc1ccccc12 [24d] | > 100 µM | > 20 µM | 104 to 106 °C | –
10 | O=C(c1ccc([N+](=O)[O-])cc1)[C@@H]1[C@@H](c2ccc(Cl)cc2)[C@H](Cc2ccccc2)N[C@@]12C(=O)Nc1c(Br)cccc12 [24e] | 15.7 µM | 0.96 µM | – | LTopIB inhibition, result in words [1]: showed potential results; also recorded: potent LTopIB inhibitors; also recorded: able to inhibit the recombinant enzyme in vitro
11 | Cc1ccc(C(=O)C2C(c3ccc(Br)cc3)C(Cc3ccccc3)NC23C(=O)Nc2ccc(I)cc23)cc1 (centres unmarked) [24f] | 19.6 µM | 1.62 µM | – | LTopIB inhibition, result in words [1]: showed potential results; also recorded: potent LTopIB inhibitors; also recorded: able to inhibit the recombinant enzyme in vitro
12 | COc1ccc([C@H]2[C@H](Cc3cc4ccccc4[nH]3)N[C@@]3(C(=O)Nc4ccccc43)[C@@H]2C(=O)c2ccc(Br)cc2)cc1 [25b] | 89.1 µM | > 10 µM | 118 to 120 °C | –
13 | COc1ccc(C2C(Cc3c[nH]c4ccccc34)NC3(C(=O)Nc4ccc(F)cc43)C2C(=O)c2ccc(C3CCCCC3)cc2)cc1 (centres unmarked) [25d] | 27.2 µM | 3.55 µM | – | LTopIB inhibition, result in words [1]: showed potential results; also recorded: potent LTopIB inhibitors; also recorded: able to inhibit the recombinant enzyme in vitro
14 | C[C@@H]1[C@H](O)[C@@H](C)/C=C/C=C/C=C/C=C/C=C/C=C/C=C/[C@H](O[C@@H]2O[C@H](C)[C@@H](O)[C@H](N)[C@@H]2O)C[C@@H]2O[C@](O)(C[C@@H](O)C[C@@H](O)[C@H](O)CC[C@@H](O)C[C@@H](O)CC(=O)O[C@H]1C)C[C@H](O)[C@H]2C(=O)O [Amphotericin B, reference compound] | – | 0.06 µM | – | –
15 | COC(=O)C1CC2CCCN2C12C(=O)N(Cc1ccccc1)c1ccccc12 (centres unmarked) [compound 15] | – | – | 138 to 140 °C | IC50 [3]: 3.29 µM
16 | Cc1ccc(C(CC(=O)c2ccccc2)C2C(=O)Nc3ccccc32)cc1 (centres unmarked) [compound 16] | – | – | 112 to 114 °C | EC50 [4]: 16.2 µg/mL (≈ 45.6 µM)
17 | O=C(c1ccc(F)cc1)C1C(c2ccc(Cl)cc2Cl)C2CSCN2C12C(=O)Nc1ccccc12 (centres unmarked) [compound 17] | – | – | 103 to 105 °C | IC50 [4]: 39.8 ± 0.43 µM
18 | O=C1NC(=O)C2(CC(c3ccccc3)N(Cc3ccccc3)C(c3ccccc3)C2)N1c1ccccc1 (centres unmarked) [compound 19] | – | – | 142 to 144 °C | IC50 [4]: 0.89 µM
